Columns and labels:
[1] = Nonclinical study, subcutaneous 3 mg/kg/day, 13 weeks (NOAEL); type: in vivo; details: Rat
[2] = Drug/excipient compatibility, 2 weeks at 40° C.; type: physicochemical; details: 2 weeks in most excipients at 40° C., with the exception of MCTs and DMI
Procedure: (§1) Pre-formulation experiments were performed to understand the solubility and stability of the drug in excipients. In relation to drug/excipient compatibility, DMVT-505 was stable for 2 weeks (peak purity>98%) in most excipients at 40° C., with the exception of MCTs and DMI, which may be due to oxidation. Based on the pre-formulation data, aqueous-based solvent systems were designed for WS3. Further formulations were prepared combining suitable phases developed during all the workstreams to obtain formulations to limit the suspected drug partitioning between the aqueous and oil phases (WS2/3/4).
as §1, with “oil-based” for “aqueous-based”, “WS2. Formulations based on these solvent systems, along with formulations with alternative emulsifiers (WS4) were developed.” for “WS3.”

[3] = 28-day twice daily topical administration: toxicokinetics, skin concentrations, dermal irritancy and toxicity (Example 7); set-up: species or system Gottingen minipigs; details: minipig, in vivo
Procedure: Following dose application on each dosing day, the dose sites were semi-occluded for approximately 20±1 hours from the first dose and then gently washed before the next dose was applied.

[4] = system: AhR pathway in intestinal human colon adenocarcinoma
[5] = system: AhR target gene, cyp1a1; details: primary human keratinocytes, human or rodent leukocytes
[6] = Gao et al., Journal of Polymer Research 2011; cited from earlier work
[7] = Pre-formulation solubility of DMVT-505 in excipients and solvent systems; type: physicochemical
Procedure: as §1
Experiments conducted on the stability of DMVT-505 in individual excipients also allowed for the identification of suitable alternative oil and aqueous phase excipients, and this information was used during the formulation development as the basis of solvent system design.
For WS3, aqueous phases were designed and DMVT-505 solubility in such systems was determined, ahead of formulation development where formulations were sequentially developed, tested and optimized using accelerated physical stability data generated primarily via the LUMiSizer platform. […] Additionally, combined aspects of each workstream (WS2/3/4) were developed with optimal physical stability and to limit the partitioning of the drug between the oil and aqueous phases.
For WS2, oil phase solvent systems were designed and DMVT-505 solubility in such systems was determined, ahead of formulation development where formulations were sequentially developed, tested and optimized using accelerated physical stability data generated primarily via the LUMiSizer platform. […] A number of emulsifiers and surfactant systems (WS4) were screened in order to achieve a formulation which was, theoretically, as stable as CR01. To do this, WS4 formulations were rationally designed, prepared and tested in a similar fashion to the previous workstreams. Additionally, combined aspects of each workstream (WS2/3/4) were developed with optimal physical stability and to limit the partitioning of the drug between the oil and aqueous phases.

Compound: CC(C)c1c(O)cc(/C=C/c2ccccc2)cc1O [3,5-Dihydroxy-4-isopropyl-trans-stilbene]
- AUC NOAEL [1]: 99 ng·h/mL
- peak purity [2]: > 98%
- dermal irritation at the dose site [3]: no test article-related dermal irritation
- systemic toxicity [3]: no systemic toxicity
- AhR pathway activity [4]: activator
- expression of the AhR target gene cyp1a1 [5]: induce the expression
- sensitivity to oxidation and photo degradation [6]: sensitive to oxidation and photo degradation
- solubility in diisopropyl adipate [7]: good solubilizer
- solubility in mineral oil [7]: non-solvent
- solubility in water [7]: not soluble in water
- solubility ([7]; in fixed oils, fatty alcohols, glycols and volatile solvent): > 7 % w/w
